Drawing on PMC10923520 (Science Advances, 2024), this text covers IC50 for one compound.

The test system of this assay is A549 (EGFR^WT) cells. The assay can be described thus: MTT cell viability inhibition assay, A549 cells. In kind it is cell-based. Particulars: Homo sapiens, A549, 72 h, read-out: IC50 (μM) A549 (EGFR^WT).

One may read the IC50 as the midpoint of a concentration-inhibition curve. Regarding `C=CC(=O)Nc1cc(Nc2nccc(-c3cn(C)c4ccccc34)n2)c(OC)cc1N(C)CCN(C)C` [Osimertinib, osimertinib], the half-maximal inhibitory concentration (IC50) stood at 0.6864 ± 0.0045 µM.
